Reference: US20240317696A1, “ALKYL CARBOXYLIC ACID COMPOUNDS AND APPLICATION THEREOF” (MEDSHINE DISCOVERY INC., priority 2021, published 2024)

Experiments:
[1] = target: sGC (Homo sapiens (Human), UniProt Q02153); assay: cGMP expression test based on LNCap cells (sGC stimulatory activity); type: cell-based; conditions: ODQ present; for MEC: Minimum effective concentration required to stimulate cGMP production in LNCap cells (greater than three times the baseline value); for EC50: cGMP production in LNCap cells
Method: I. cGMP Expression Test Based on InCap Cells
(1) The compound was diluted to a concentration of 10 mM using DMSO.
(2) A serial dilution of the compound was performed, resulting in 10 different concentration levels of each compound. 100 nL of each diluted compound was added to a 96-well plate.
3) Preparation of LNCap Cells
(1) LNCap culture medium: RPMI1640 supplemented with 10% fetal bovine serum (FBS) and 1% double antibody
(9) Assay buffer was added, and the cell concentration was adjusted to 3×10^6/mL.
4) Preparation and Addition of ODQ Solution
(1) 10 mM ODQ stock solution was diluted at a ratio of 1:1000 and added to the cell solution.
(2) After thorough mixing, the solution was added to a microplate at 10 μL per well.
5) Preparation of cGMP Standard Curve
(1) 1 mM cGMP stock solution was diluted to 10 μM using assay buffer. 11 concentration gradients were created through 4-fold serial dilutions.
(2) The diluted cGMP was added to the microplate at 10 μL per well.
6) Addition of Assay Reagents and Plate Reading
(1) cGMP-D2 was transferred to a 384-well plate at 5 μL per well. Anti-cGMP cryptate was transferred to a […] at 5 μL per well. Centrifugation was performed at 1500 rpm for 1 minute.
(2) Incubation was carried out at room temperature for 1 hour.
(3) The plates were read using envision at 665/615 wavelengths.
(1) cGMP standard curve: A standard curve was generated using GraphPad Prism, based on the ratio of cGMP concentration to the 665/615 wavelength values.
(2) Conversion of HTRF (homogeneous time-resolved fluorescence) ratio (665/615) to cGMP concentration: In GraphPad Prism, the HTRF ratio (665/615) was copied to the ratio column of the cGMP standard curve. The analysis “Log inhibitor vs response-variable slope” was run, and the “interpolate” option was selected to convert the HTRF ratio (665/615) into cGMP concentration.
(3) Compound activation curve: A curve was generated using the “Log agonist vs response-variable slope” analysis method in GraphPad Prism, based on the converted cGMP concentration and compound concentration.

[2] = system: hepatocytes; assay: In vitro hepatocyte metabolic stability, mouse; type: in vitro ADME; conditions: test compound 1 μM, 0.5×10^6 cells/mL
Method: (§1) 1. Experimental Objective: The Aim of the Study was to Assess the Stability of the Compounds in Hepatocytes of Different Species.
(§2) A variety of 96-well precipitation plates were prepared and labeled as T0, T15, T30, T60, T90, T0-MC, T90-MC, and blank matrix, respectively. Revival medium and incubation medium were taken in advance and pre-warmed in a 37° C. water bath. Hepatocytes of different species, stored in a liquid nitrogen tank, were taken and immediately immersed in a 37° C. water bath for approximately 90 seconds. Once partially thawed, cells were transferred to centrifuge tubes containing 40 mL of revival medium, and gently inverted to resuspend the cells in the revival medium. At room temperature, cells were centrifuged at 100×g for 5 minutes. The supernatant was discarded, and the hepatocytes were resuspended in an appropriate volume of incubation medium. Viability was calculated using trypan blue staining. 198 μL of hepatocyte suspension (0.51×10^6 cells/mL) was added to pre-warmed incubation plates. For the control group, 198 μL of hepatocyte-free incubation medium was added to T0-MC and […] plates. All plates were pre-incubated for 10 minutes in a 37° C. incubator. […] All samples were mixed well and analyzed using LC/MS/MS methods.

[3] = system: hepatocytes; assay: In vitro hepatocyte metabolic stability, rat; type: in vitro ADME; conditions: test compound 1 μM, 0.5×10^6 cells/mL
Method: as §1, §2

[4] = system: hepatocytes; assay: In vitro hepatocyte metabolic stability, human; type: in vitro ADME; conditions: test compound 1 μM, 0.5×10^6 cells/mL
Method: as §1, §2

[5] = In vivo pharmacokinetic property study in male Sprague Dawley rats
Method: Experimental objective: The aim of this study was to determine the pharmacokinetic parameters of the compound in male Sprague Dawley rats.
Sprague Dawley rats (male, 200 to 300 g, 7 to 9 weeks old, procured from Shanghai SLAC)
For this project, four male Sprague Dawley rats were used. Two rats in one group were administered the compound intravenously at a dosage of 2 mg/kg and a concentration of 0.4 mg/mL. Two rats in another group were administered the compound orally at a dosage of 10 mg/kg and a concentration of 1 mg/mL. Plasma samples were collected 0.083 (intravenous group only), 0.25, 0.5, 1, 2, 4, 6, 8, and 24 hours after administration. The collected samples were then analyzed using LC-MS/MS and data were collected. The collected analytical data were processed using Phoenix WinNonlin 6.3 software to calculate relevant pharmacokinetic parameters.

sGC, sequence (Q02153 whole entry): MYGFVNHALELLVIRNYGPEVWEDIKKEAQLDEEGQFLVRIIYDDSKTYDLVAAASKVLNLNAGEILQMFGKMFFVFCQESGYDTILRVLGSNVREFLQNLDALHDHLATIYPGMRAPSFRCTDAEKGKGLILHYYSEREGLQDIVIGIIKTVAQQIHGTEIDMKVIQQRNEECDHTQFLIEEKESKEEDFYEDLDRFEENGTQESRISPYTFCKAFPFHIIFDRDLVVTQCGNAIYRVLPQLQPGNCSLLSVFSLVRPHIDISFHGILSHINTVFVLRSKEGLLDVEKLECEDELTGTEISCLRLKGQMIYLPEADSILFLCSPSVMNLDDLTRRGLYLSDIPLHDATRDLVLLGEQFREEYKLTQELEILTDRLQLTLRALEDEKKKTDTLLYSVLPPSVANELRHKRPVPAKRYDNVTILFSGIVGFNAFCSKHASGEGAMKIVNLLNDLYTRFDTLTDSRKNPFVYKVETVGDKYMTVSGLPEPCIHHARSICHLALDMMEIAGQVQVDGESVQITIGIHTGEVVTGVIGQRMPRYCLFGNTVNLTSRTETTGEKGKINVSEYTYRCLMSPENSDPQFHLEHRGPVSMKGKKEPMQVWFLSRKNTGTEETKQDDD
sGC, sequence (Q02108 whole entry partner): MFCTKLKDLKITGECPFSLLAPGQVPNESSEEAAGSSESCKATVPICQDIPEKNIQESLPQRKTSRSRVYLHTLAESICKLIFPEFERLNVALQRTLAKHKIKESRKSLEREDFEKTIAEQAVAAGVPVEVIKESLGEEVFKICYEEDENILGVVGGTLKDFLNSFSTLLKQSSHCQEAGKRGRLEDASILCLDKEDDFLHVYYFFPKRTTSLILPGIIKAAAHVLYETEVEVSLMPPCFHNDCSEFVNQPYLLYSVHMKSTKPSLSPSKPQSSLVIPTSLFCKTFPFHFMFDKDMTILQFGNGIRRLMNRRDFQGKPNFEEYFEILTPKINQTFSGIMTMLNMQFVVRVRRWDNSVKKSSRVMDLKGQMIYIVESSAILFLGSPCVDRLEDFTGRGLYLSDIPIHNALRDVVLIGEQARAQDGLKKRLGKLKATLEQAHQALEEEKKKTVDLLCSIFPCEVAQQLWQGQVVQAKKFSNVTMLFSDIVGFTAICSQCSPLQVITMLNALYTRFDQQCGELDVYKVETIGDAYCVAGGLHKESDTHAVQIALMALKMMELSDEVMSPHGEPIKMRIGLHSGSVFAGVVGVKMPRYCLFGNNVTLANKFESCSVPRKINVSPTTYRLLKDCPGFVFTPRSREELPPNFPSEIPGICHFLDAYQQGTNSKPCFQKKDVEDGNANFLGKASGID

**Q.** With `C[C@H]([C@H](C(=O)Nc1cc(C(CC(=O)O)C23CC(F)(C2)C3)ccc1Cl)c1ccc(Cl)cc1)C(F)(F)F` (stereo partly drawn) [WX004] as the compound, how does the MEC [1] read?
**A.** Its MEC is 0.61 nM.

**Q.** What about the EC50 [1] of the same compound?
**A.** Its EC50 is 3.74 nM.

**Q.** For `COC12CC(C(CC(=O)O)c3ccc(Cl)c(NC(=O)[C@H](c4ccc(Cl)cc4)[C@@H](C)C(F)(F)F)c3)(C1)C2` (stereo partly drawn) [WX013], which MEC [1] is on record?
**A.** Its MEC is 1.22 nM.

**Q.** And the EC50 [1]?
**A.** Its EC50 is 3.5 nM.

**Q.** What does the source list for `COC12CC([C@H](CC(=O)O)c3ccc(Cl)c(NC(=O)[C@H](c4ccc(Cl)cc4)[C@@H](C)C(F)(F)F)c3)(C1)C2` [WX014]?
**A.** MEC [1]: 0.42 nM; EC50 [1]: 1.65 nM

**Q.** Which MEC [1] does the source give for `Cc1ccc(C(CC(=O)O)C23CC(F)(C2)C3)cc1NC(=O)C(c1ccc(Cl)cc1)[C@@H](C)C(F)(F)F` (stereo partly drawn) [WX010] here?
**A.** The MEC was 1.76 nM.

**Q.** And the EC50 [1]?
**A.** Its EC50 is 2.16 nM.

**Q.** For `C[C@H]([C@H](C(=O)Nc1cc([C@@H](CC(=O)O)[C@H]2CCCO2)ccc1Cl)c1ccc(Cl)cc1)C(F)(F)F` [WX016], which MEC [1] is on record?
**A.** Its MEC is 27.85 nM.

**Q.** What about the EC50 [1] of the same compound?
**A.** Its EC50 is 145 nM.

**Q.** What does the source list for `C[C@H]([C@H](C(=O)Nc1cc([C@@H](CC(=O)O)C23CC(F)(C2)C3)ccc1Cl)c1ccc(Cl)cc1)C(F)(F)F` [WX005]?
**A.** MEC [1]: 0.27 nM; EC50 [1]: 2.06 nM; CLint (liver) [2]: 610.4 mL/min/kg; T1/2 [2]: 0.45 h; CLint (liver) [3]: 154.7 mL/min/kg; T1/2 [3]: 0.698 h; CLint (liver) [4]: 49.7 mL/min/kg; T1/2 [4]: 1.29 h; AUC ([5]; iv 2 mg/kg): 11.228 µM·h; Cl ([5]; iv 2 mg/kg): 5.47 mL/min/kg; T1/2 ([5]; iv 2 mg/kg): 3.83 h; Vdss ([5]; iv 2 mg/kg): 1.27 L/kg; AUC ([5]; po 10 mg/kg): 17.423 µM·h; T1/2 ([5]; po 10 mg/kg): 6.92 h; % F ([5]; po 10 mg/kg vs iv 2 mg/kg): 42.1%

**Q.** Which MEC [1] does the source give for `C[C@H]([C@H](C(=O)Nc1cc(C(CC(=O)O)C2CCCC2)ccc1Cl)c1ccc(Cl)cc1)C(F)(F)F` (stereo partly drawn) [WX001] here?
**A.** The MEC was 4.20 nM.

**Q.** What about the EC50 [1] of the same compound?
**A.** The EC50 was 6.62 nM.

**Q.** With `C[C@H]([C@H](C(=O)Nc1cc([C@@H](CC(=O)O)C2CCCC2)ccc1Cl)c1ccc(Cl)cc1)C(F)(F)F` [WX002] as the compound, how does the MEC [1] read?
**A.** The MEC was 2.20 nM.

**Q.** What about the EC50 [1] of the same compound?
**A.** The EC50 was 1.76 nM.

**Q.** What does the source list for `Cc1ccc([C@@H](CC(=O)O)C23CC(F)(C2)C3)cc1NC(=O)[C@H](c1ccc(Cl)cc1)[C@@H](C)C(F)(F)F` [WX011]?
**A.** MEC [1]: 1.39 nM; EC50 [1]: 1.75 nM

**Q.** Which MEC [1] does the source give for `C[C@H]([C@H](C(=O)Nc1cc(C(CC(=O)O)C23CC(F)(C2)C3)ccc1F)c1ccc(Cl)cc1)C(F)(F)F` (stereo partly drawn) [WX007] here?
**A.** Its MEC is 0.65 nM.

**Q.** And the EC50 [1]?
**A.** The EC50 was 3.28 nM.
